Data on five molecules can be found in PMC11355573, “A New Renieramycin T Right-Half Analog as a Small Molecule Degrader of STAT3” (Marine Drugs, 2024).

In general, IC50 refers to the midpoint of a concentration-inhibition curve.

Test [1] relates to H460 cells. The test is described as follows: MTT cell viability assay (cytotoxicity). It counts as cell-based, human. The note with it: Homo sapiens, NCI-H460, 24 h, read-out: IC50 ± SD H460. The protocol:
(§1) NSCLCs H292 and H460 were treated with various concentrations of derivatives of the RT right-half analog for 24 h. […] However, the IC50 values for DH_17, DH_20, DH_23, and DH_26 in H460 cells were greater than 100 μM. TM-(−)-18 was identified as a potent compound in a previous study. The structure of TM-(−)-18 was present in Figure 1A. […] To assess the selectivity of DH_28, DH_30, DH_31, and TM-(−)-18 in lung cancer cells, non-tumorigenic epithelial cell lines derived from human bronchial epithelial cells (BEAS-2B) were treated with DH_28, DH_30, DH_31, and TM-(−)-18 at various concentrations for 24 h.
(§2) MTT assay was conducted to ascertain cell viability in the presence of DH_17, DH_20, DH_23, DH_26, DH_28, DH_30, DH_31, or TM-(–)-18. H292 and H460 cells (1.0 × 10^4 cells per well) were seeded in 96-well plates. Following overnight incubation, the cells were treated with different concentrations of RT right–half analogs (0–100 μM) for 24 h at 37 °C. Subsequently, cell viability was assessed using MTT assay, following the manufacturers’ protocols. The optical density was measured at 570 nm using a CLARIOStar microplate reader (BMG Labtech, Ortenberg, Germany).
For orientation: Tetrazolium dyes change colour on reduction, which living cells bring about.

In test [2] the test system is H292 cells. The test is described as follows: MTT cell viability assay (cytotoxicity). Type of test: cell-based, human. The note with it: read-out: IC50 ± SD H292. The protocol:
as §1, §2

The test system of another test is BEAS-2B cells. The test can be described thus: MTT assay in non-tumorigenic bronchial epithelial cells (selectivity). It counts as cell-based. The note with it: Homo sapiens, 24 h, read-out: BEAS-2B IC50 ± SD. As to the method:
as §1
Figure 2 The effect of RT right-half analogs on cytotoxicity in NSCLC and human normal lung epithelial (BEAS-2B) cell lines and apoptotic cell death in NSCLC cells. (A) NSCLC H292 and H460 cells were treated with derivatives of RT right-half analogs for 24 h and analyzed using MTT assay to assess cytotoxicity. (B) IC50 values for H292 and H460 cell lines were calculated. (C) BEAS-2B cells were treated with DH_28, DH_30, DH_31, and TM-(−)-18 for 24 h. The cytotoxic effects were evaluated using an MTT assay, and the IC50 values for BEAS-2B cells were determined. (D) H292 and H460 cells were seeded and treated with 0–10 μM of DH_28, DH_30, and DH_31 for 24 h. Hoechst 33342 and PI were used to stain the cell nuclei. Images were obtained under a fluorescence microscope. (E) The percentages of cell death were calculated based on the stained images in H292 and H460 cells. […] TEXT PRINTED IN THE PICTURE: (B) DH_17: IC50 ± SD (μM) H292: 20.50 ± 3.69; IC50 ± SD (μM) H460: > 100 | (B) DH_20: IC50 ± SD (μM) H292: 21.46 ± 3.77; IC50 ± SD (μM) H460: > 100 | (B) DH_23: IC50 ± SD (μM) H292: 17.50 ± 3.08; IC50 ± SD (μM) H460: > 100 | (B) DH_26: IC50 ± SD (μM) H292: 7.18 ± 2.39; IC50 ± SD (μM) H460: > 100 | (B) DH_28: IC50 ± SD (μM) H292: 9.56 ± 1.87; IC50 ± SD (μM) H460: 11.48 ± 1.87 | (B) DH_30: IC50 ± SD (μM) H292: 7.80 ± 2.30; IC50 ± SD (μM) H460: 4.51 ± 0.78 | (B) DH_31: IC50 ± SD (μM) H292: 5.54 ± 1.04; IC50 ± SD (μM) H460: 2.90 ± 0.58 | (B) TM-(–)-18: IC50 ± SD (μM) H292: > 100; IC50 ± SD (μM) H460: 7.89 ± 1.27 | (C) DH_28: BEAS-2B IC50 ± SD (μM): 16.46 ± 2.11 | (C) DH_30: BEAS-2B IC50 ± SD (μM): 5.50 ± 1.70 | (C) DH_31: BEAS-2B IC50 ± SD (μM): 6.51 ± 1.40 | (C) TM-(–)-18: BEAS-2B IC50 ± SD (μM): 7.25 ± 1.25 DOUBTS OF THE COPYIST ABOUT THIS PICTURE: Panel C, DH_28, IC50: small print, 16.46 ± 2.11 is the best reading; 6 could be 8 / Panel C, DH_30, IC50: small print, 5.50 ± 1.70 is the best reading; 5 could be 6 / Panel C, DH_31, IC50: small print, 6.51 ± 1.40 is the best reading; 6 could be 8 or 5 / Panel C, TM-(–)-18, IC50: small print, 7.25 ± 1.25 is the best reading

The test system of test [3] is H460 cells. It counts as cell-based. The note with it: H460, 10 µM, 24 h. As to the method:
(§3) Apoptosis is a crucial mechanism of cell death induced by anticancer drugs. We further analyzed the apoptosis induction effect of the potent small molecules, namely DH_28, DH_30, and DH_31. Nuclear morphology detected by the staining with nucleus-specific fluorescence dye Hoechst 33342 and cell-impermeable PI for necrotic detection was performed. Morphologic changes by means of condensed and/or fragmented nuclei were observed after 24 h of treatment (Figure 2D). […] Therefore, DH_31 was selected for further experiments.
(§4) Figure 2 The effect of RT right-half analogs on cytotoxicity in NSCLC and human normal lung epithelial (BEAS-2B) cell lines and apoptotic cell death in NSCLC cells. (A) NSCLC H292 and H460 cells were treated with derivatives of RT right-half analogs for 24 h and analyzed using MTT assay to assess cytotoxicity. (B) IC50 values for H292 and H460 cell lines were calculated. (C) BEAS-2B cells were treated with DH_28, DH_30, DH_31, and TM-(−)-18 for 24 h. The cytotoxic effects were evaluated using an MTT assay, and the IC50 values for BEAS-2B cells were determined. (D) H292 and H460 cells were seeded and treated with 0–10 μM of DH_28, DH_30, and DH_31 for 24 h. Hoechst 33342 and PI were used to stain the cell nuclei. Images were obtained under a fluorescence microscope. (E) The percentages of cell death were calculated based on the stained images in H292 and H460 cells. Data represent the mean ± SD (n = 3). *, **, and *** indicate a statistically significant difference between the treated and the untreated cells at p < 0.05, p < 0.01, and p < 0.001, respectively. TEXT PRINTED IN THE PICTURE: (B) DH_17: IC50 ± SD (μM) H292: 20.50 ± 3.69; IC50 ± SD (μM) H460: > 100 | (B) DH_20: IC50 ± SD (μM) H292: 21.46 ± 3.77; IC50 ± SD (μM) H460: > 100 | (B) DH_23: IC50 ± SD (μM) H292: 17.50 ± 3.08; IC50 ± SD (μM) H460: > 100 | (B) DH_26: IC50 ± SD (μM) H292: 7.18 ± 2.39; IC50 ± SD (μM) H460: > 100 | (B) DH_28: IC50 ± SD (μM) H292: 9.56 ± 1.87; IC50 ± SD (μM) H460: 11.48 ± 1.87 | (B) DH_30: IC50 ± SD (μM) H292: 7.80 ± 2.30; IC50 ± SD (μM) H460: 4.51 ± 0.78 | (B) DH_31: IC50 ± SD (μM) H292: 5.54 ± 1.04; IC50 ± SD (μM) H460: 2.90 ± 0.58 | (B) TM-(–)-18: IC50 ± SD (μM) H292: > 100; IC50 ± SD (μM) H460: 7.89 ± 1.27 | (C) DH_28: BEAS-2B IC50 ± SD (μM): 16.46 ± 2.11 | (C) DH_30: BEAS-2B IC50 ± SD (μM): 5.50 ± 1.70 | (C) DH_31: BEAS-2B IC50 ± SD (μM): 6.51 ± 1.40 | (C) TM-(–)-18: BEAS-2B IC50 ± SD (μM): 7.25 ± 1.25 DOUBTS OF THE COPYIST ABOUT THIS PICTURE: Panel C, DH_28, IC50: small print, 16.46 ± 2.11 is the best reading; 6 could be 8 / Panel C, DH_30, IC50: small print, 5.50 ± 1.70 is the best reading; 5 could be 6 / Panel C, DH_31, IC50: small print, 6.51 ± 1.40 is the best reading; 6 could be 8 or 5 / Panel C, TM-(–)-18, IC50: small print, 7.25 ± 1.25 is the best reading

Test [4] has as its system H292 cells. It counts as cell-based. To be noted: H292, 10 µM. The protocol: as §3, §4
The target of another test is T1, STAT3 (Homo sapiens, UniProt P40763).
T1 construct: endogenous in cells; host or cells: NCI-H460 (ATCC HTB-177)
The test is described as follows: STAT3 proteasomal degradation, Western blot with or without MG132. It counts as cell-based. The protocol: To explore whether the reduction in total STAT3 protein after DH_31 treatments (as shown in Figure 5B–E) occurs at the mRNA or protein levels, we first investigated mRNA levels using Real-time qPCR. […] To evaluate whether DH_31 affects STAT3 stability, pretreatment with MG132, a potent selective proteasome inhibitor, was performed. H460 cells were pretreated with or without MG132 (10 μM) for 1 h and then cells were either treated with DH_31 for 6 h or left untreated. […] The proteasome can recognize and degrade protein targets that are conjugated by single or poly-ubiquitin molecules. To investigate the ubiquitination level of STAT3 with DH_31 treatments, the ubiquitination level was evaluated using immunoprecipitation and Western blot analysis of the STAT3–ubiquitin complex in the lung cancer cells treated with DH_31 and in untreated cells.
Immunoprecipitation assay was performed to investigate ubiquitin–proteasomal degradation, shedding light on the regulatory mechanisms involved. H460 cells (4.0 × 10^5 cells per well) were seeded in 6-well plates. Following overnight incubation, the cells were pretreated with 10 μM of a proteasome inhibitor, MG132, for 1 h to prevent proteasomal degradation, and then were treated with different concentrations of DH_31 (0–2.5 μM) for 6 h. After treatment, the cells were lysed as described above. Immunoprecipitation was carried out using the Dynabeads™ Protein G Immunoprecipitation kit, following the manufacturers’ protocols. The magnetic beads were coated with the rabbit anti-STAT3, then incubated with whole-cell lysate and mixed gently overnight at 4 °C. After washing, the supernatant containing the antibody–antigen complex was used to perform Western blot analysis to detect the ubiquitinated STAT3 protein.
(In western blotting, separated proteins are transferred to a membrane and probed.)

Where two headings read alike, the source gives them in different places. Residues, ends and D or L forms follow the SMILES beside them. *: point of attachment. Cbz = O=C(OCc1ccccc1)*

T1 sequence (P40763 whole entry): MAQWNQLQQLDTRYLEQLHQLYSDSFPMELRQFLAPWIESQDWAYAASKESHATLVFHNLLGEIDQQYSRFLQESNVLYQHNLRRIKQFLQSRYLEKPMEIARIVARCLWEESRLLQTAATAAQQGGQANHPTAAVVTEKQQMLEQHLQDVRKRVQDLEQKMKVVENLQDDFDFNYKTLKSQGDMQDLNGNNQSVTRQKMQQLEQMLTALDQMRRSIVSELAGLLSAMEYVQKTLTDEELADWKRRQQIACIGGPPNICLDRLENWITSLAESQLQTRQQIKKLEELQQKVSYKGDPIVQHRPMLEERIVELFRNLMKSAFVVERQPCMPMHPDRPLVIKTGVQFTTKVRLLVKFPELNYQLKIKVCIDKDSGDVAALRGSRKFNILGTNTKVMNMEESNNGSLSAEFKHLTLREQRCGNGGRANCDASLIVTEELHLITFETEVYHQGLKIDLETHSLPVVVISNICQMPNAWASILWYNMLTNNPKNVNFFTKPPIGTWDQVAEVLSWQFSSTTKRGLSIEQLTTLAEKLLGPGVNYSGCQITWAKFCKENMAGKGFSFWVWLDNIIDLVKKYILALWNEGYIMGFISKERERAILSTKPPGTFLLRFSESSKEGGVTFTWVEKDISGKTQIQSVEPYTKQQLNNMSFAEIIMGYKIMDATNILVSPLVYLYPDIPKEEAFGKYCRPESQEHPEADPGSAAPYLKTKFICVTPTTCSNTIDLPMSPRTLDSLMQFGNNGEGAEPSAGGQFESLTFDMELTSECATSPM

For the molecule `COc1c(C)cc2c(c1O)[C@@H]1CN(Cc3ccncc3)[C@@H](C#N)[C@H](C2)N1C` [DH_23, (1R,4R,5S)-10-hydroxy-9-methoxy-8,11-dimethyl-3-(pyridin-4-ylmethyl)-1,2,3,4,5,6-hexahydro-1,5-epiminobenzo[d]azocine-4-carbonitrile], the half-inhibitory concentration (IC50) in the test on H460 cells [1] was greater than 100 µM; with H292 cells [2] (Homo sapiens, NCI-H292, 24 h) it was 17.5 ± 3.08 µM.
Consider `COc1c(C)cc2c(c1O)[C@@H]1CN(Cc3ccccn3)[C@@H](C#N)[C@H](C2)N1C` [DH_17, (1R,4R,5S)-10-hydroxy-9-methoxy-8,11-dimethyl-3-(pyridin-2-ylmethyl)-1,2,3,4,5,6-hexahydro-1,5-epiminobenzo[d]azocine-4-carbonitrile], for which the IC50 with H460 cells [1] was greater than 100 µM; in the test with H292 cells [2] (Homo sapiens, NCI-H292, 24 h), 20.5 ± 3.69 µM.
Take `COc1c(C)cc2c(c1OCc1ccccc1)[C@@H]1CN(Cc3ccc4ccccc4c3)[C@@H](C#N)[C@H](C2)N1C` [DH_30, (1R,4R,5S)-10-(benzyloxy)-9-methoxy-8,11-dimethyl-3-(naphthalen-2-ylmethyl)-1,2,3,4,5,6-hexahydro-1,5-epiminobenzo[d]azocine-4-carbonitrile]: the IC50 in the test on BEAS-2B cells is 5.5 ± 1.7 µM; in the test with H292 cells [2] (24 h) it was less than 15 µM; with H292 cells [2] (Homo sapiens, NCI-H292, 24 h), 7.8 ± 2.3 µM. Also, in the test on H460 cells [3], the apoptotic cell death entry is reported as “significant apoptotic cell death”. Further, the results for the necrosis result in the test on H460 cells [3] and in the test with H292 cells [4] (24 h (p < 0.001)) were “significant necrosis” and “Necrosis was detected”, respectively. Moreover, the apoptosis entry in the test with H292 cells [4] (24 h) is “significant apoptosis”.
On to `CC(C)C[C@@H](C=O)NC(=O)[C@H](CC(C)C)NC(=O)[C@H](CC(C)C)NC(=O)OCc1ccccc1` [MG132] (Cbz-Leu-Leu-Leu-aldehyde), for which the “effect on DH_31-induced STAT3 downregulation” value at STAT3 (H460, MG132 10 μM 1 h pretreatment, then DH_31 0, 1, 2.5 µM 6 h) is reported as “significantly reversed”. The STAT3 level entry on STAT3 (H460, MG132 10 μM pretreatment, all DH_31 concentrations) is reported as “drastically increased”.
`COc1c(C)cc2c(c1O)[C@@H]1CN(Cc3cncs3)[C@@H](C#N)[C@H](C2)N1C` [DH_26, (1R,4R,5S)-10-hydroxy-9-methoxy-8,11-dimethyl-3-(thiazol-5-ylmethyl)-1,2,3,4,5,6-hexahydro-1,5-epiminobenzo[d]azocine-4-carbonitrile]: the half-inhibitory concentration (IC50) with H460 cells [1] is greater than 100 µM; with H292 cells [2] (Homo sapiens, NCI-H292, 24 h), 7.18 ± 2.39 µM.
